Results from patent publication US20230085307A1, “PYRIDAZINONE COMPOUND AND HERBICIDE” (NISSAN CHEMICAL CORPORATION, priority 2019, published 2023).

How the values were obtained:
[1] = test system: wild oat; assay: Test Example 5: herbicidal effect by foliage application, plastic box (Table 20, symbol I); assay type: in vivo, wild oat (Avena fatua); conditions: foliage application, 320 g/ha, three weeks after application
Outline: (§1)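 Plants sown in sterilized diluvial soil and grown 14 days in a greenhouse at 25° C to 30° C, then sprayed on the foliage with the compound's emulsion diluted in water to a predetermined herbicide amount. Injury to weeds and crops scored three weeks after application on a visual rating scale.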

[2] = test system: lambsquarters; assay: Test Example 5: herbicidal effect by foliage application, plastic box (Table 20, symbol O); assay type: in vivo, lambsquarters (Chenopodium album); conditions: foliage application, 320 g/ha, three weeks after application
Outline: as §1

[3] = test system: barnyard grass; assay: Test Example 4: herbicidal effect by soil treatment (Table 19, symbol H); assay type: in vivo, barnyard grass (Echinochloa crus-galli); conditions: amount of applied herbicide 320 g/ha
Outline: (§2)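 Three weeks of greenhouse growth at 25° C. to 30° C. followed a uniform surface spray of water-diluted emulsion at a predetermined herbicide amount. Seeds had been sown beforehand under about 1.5 cm of sterilized diluvial soil. Grading followed criteria set out in an earlier test.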

[4] = test system: persian speedwell; assay: Test Example 4: herbicidal effect by soil treatment (Table 19, symbol R); assay type: in vivo, Persian speedwell (Veronica persica); conditions: amount of applied herbicide 320 g/ha
Outline: as §2

[5] = test system: false cleavers; assay: Test Example 4: herbicidal effect by soil treatment (Table 19, symbol Q); assay type: in vivo, false cleavers (Galium spurium); conditions: amount of applied herbicide 320 g/ha
Outline: as §2

[6] = test system: windgrass; assay: Test Example 5: herbicidal effect by foliage application, plastic box (Table 20, symbol L); assay type: in vivo, windgrass (Apera spica-venti); conditions: foliage application, 320 g/ha, three weeks after application
Outline: as §1

[7] = test system: southern crabgrass; assay: Test Example 5: herbicidal effect by foliage application, plastic box (Table 20, symbol F); assay type: in vivo, southern crabgrass (Digitaria ciliaris); conditions: foliage application, 320 g/ha, three weeks after application
Outline: as §1

[8] = test system: windgrass; assay: Test Example 4: herbicidal effect by soil treatment (Table 19, symbol L); assay type: in vivo, windgrass (Apera spica-venti); conditions: amount of applied herbicide 320 g/ha
Outline: as §2

[9] = test system: redroot pigweed; assay: Test Example 4: herbicidal effect by soil treatment (Table 19, symbol N); assay type: in vivo, redroot pigweed (Amaranthus retroflexus); conditions: amount of applied herbicide 320 g/ha
Outline: as §2

[10] = test system: southern crabgrass; assay: Test Example 4: herbicidal effect by soil treatment (Table 19, symbol F); assay type: in vivo, southern crabgrass (Digitaria ciliaris); conditions: amount of applied herbicide 320 g/ha
Outline: as §2

[11] = test system: chickweed; assay: Test Example 5: herbicidal effect by foliage application, plastic box (Table 20, symbol P); assay type: in vivo, common chickweed (Stellaria media); conditions: foliage application, 320 g/ha, three weeks after application
Outline: as §1

[12] = test system: false cleavers; assay: Test Example 5: herbicidal effect by foliage application, plastic box (Table 20, symbol Q); assay type: in vivo, false cleavers (Galium spurium); conditions: foliage application, 320 g/ha, three weeks after application
Outline: as §1

[13] = test system: redroot pigweed; assay: Test Example 5: herbicidal effect by foliage application, plastic box (Table 20, symbol N); assay type: in vivo, redroot pigweed (Amaranthus retroflexus); conditions: foliage application, 320 g/ha, three weeks after application
Outline: as §1

[14] = test system: chickweed; assay: Test Example 4: herbicidal effect by soil treatment (Table 19, symbol P); assay type: in vivo, common chickweed (Stellaria media); conditions: amount of applied herbicide 320 g/ha
Outline: as §2

[15] = test system: persian speedwell; assay: Test Example 5: herbicidal effect by foliage application, plastic box (Table 20, symbol R); assay type: in vivo, Persian speedwell (Veronica persica); conditions: foliage application, 320 g/ha, three weeks after application
Outline: as §1

[16] = test system: velvetleaf; assay: Test Example 5: herbicidal effect by foliage application, plastic box (Table 20, symbol M); assay type: in vivo, velvetleaf (Abutilon theophrasti); conditions: foliage application, 320 g/ha, three weeks after application
Outline: as §1

[17] = test system: green foxtail; assay: Test Example 4: herbicidal effect by soil treatment (Table 19, symbol G); assay type: in vivo, green foxtail (Setaria viridis); conditions: amount of applied herbicide 320 g/ha
Outline: as §2

[18] = test system: rice flat sedge; assay: Test Example 3: herbicidal effect by foliage application, Wagner pot (Table 18, symbol E); assay type: in vivo, rice flat sedge (Cyperus iria); conditions: 320 g/ha
Outline: (§3)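 Plants were sown in alluvial soil held under 0.1–0.5 cm standing water and grown 14 days in a greenhouse at 25–30 °C. An emulsifiable formulation, water-diluted to the set dose, was then sprayed onto the foliage, and effects were scored three weeks later using previously defined criteria.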

[19] = test system: blackgrass; assay: Test Example 4: herbicidal effect by soil treatment (Table 19, symbol J); assay type: in vivo, blackgrass (Alopecurus myosuroides); conditions: amount of applied herbicide 320 g/ha
Outline: as §2

[20] = test system: Italian ryegrass; assay: Test Example 5: herbicidal effect by foliage application, plastic box (Table 20, symbol K); assay type: in vivo, Italian ryegrass (Lolium multiflorum); conditions: foliage application, 320 g/ha, three weeks after application
Outline: as §1

[21] = test system: barnyard grass; assay: Test Example 5: herbicidal effect by foliage application, plastic box (Table 20, symbol H); assay type: in vivo, barnyard grass (Echinochloa crus-galli); conditions: foliage application, 320 g/ha, three weeks after application
Outline: as §1

[22] = test system: blackgrass; assay: Test Example 5: herbicidal effect by foliage application, plastic box (Table 20, symbol J); assay type: in vivo, blackgrass (Alopecurus myosuroides); conditions: foliage application, 320 g/ha, three weeks after application
Outline: as §1

[23] = test system: green foxtail; assay: Test Example 5: herbicidal effect by foliage application, plastic box (Table 20, symbol G); assay type: in vivo, green foxtail (Setaria viridis); conditions: foliage application, 320 g/ha, three weeks after application
Outline: as §1

[24] = test system: velvetleaf; assay: Test Example 4: herbicidal effect by soil treatment (Table 19, symbol M); assay type: in vivo, velvetleaf (Abutilon theophrasti); conditions: amount of applied herbicide 320 g/ha
Outline: as §2

[25] = test system: barnyard grass; assay: Test Example 3: herbicidal effect by foliage application, Wagner pot (Table 18, symbol H); assay type: in vivo, barnyard grass (Echinochloa crus-galli); conditions: 320 g/ha
Outline: as §3

[26] = test system: Italian ryegrass; assay: Test Example 4: herbicidal effect by soil treatment (Table 19, symbol K); assay type: in vivo, Italian ryegrass (Lolium multiflorum); conditions: amount of applied herbicide 320 g/ha
Outline: as §2

[27] = test system: wild oat; assay: Test Example 4: herbicidal effect by soil treatment (Table 19, symbol I); assay type: in vivo, wild oat (Avena fatua); conditions: amount of applied herbicide 320 g/ha
Outline: as §2

[28] = test system: Chinese sprangletop; assay: Test Example 3: herbicidal effect by foliage application, Wagner pot (Table 18, symbol D); assay type: in vivo, chinese sprangletop (Leptochloa chinensis); conditions: 320 g/ha
Outline: as §3

[29] = test system: lambsquarters; assay: Test Example 4: herbicidal effect by soil treatment (Table 19, symbol O); assay type: in vivo, lambsquarters (Chenopodium album); conditions: amount of applied herbicide 320 g/ha
Outline: as §2

Q: Which “herbicidal effect grade, I: wild oat” value [1] does the source give for `CCc1ccccc1-c1sc2ccccc2c1-c1c(O)c(C)nn(C)c1=O` [1-003] here?
A: 3 (Herbicidal rate of 40% or more and less than 70%)

Q: What about the “herbicidal effect grade, O: lambsquarters” value [2] of the same compound?
A: 0 (Herbicidal rate of 5% or less (almost no effect))

Q: And the “herbicidal effect rating, H: barnyard grass” value [3]?
A: 0 (Herbicidal rate of 5% or less (almost no effect))

Q: And the “herbicidal effect rating, R: persian speedwell” value [4]?
A: 2 (Herbicidal rate of 20% or more and less than 40%)

Q: And the “herbicidal effect rating, Q: false cleavers” value [5]?
A: 3 (Herbicidal rate of 40% or more and less than 70%)

Q: And the “herbicidal effect grade, L: windgrass” value [6]?
A: 5 (Herbicidal rate of 90% or more (almost completely withered))

Q: And the “herbicidal effect grade, F: southern crabgrass” value [7]?
A: 4 (Herbicidal rate of 70% or more and less than 90%)

Q: And the “herbicidal effect rating, L: windgrass” value [8]?
A: 0 (Herbicidal rate of 5% or less (almost no effect))

Q: What about the “herbicidal effect rating, N: redroot pigweed” value [9] of the same compound?
A: 2 (Herbicidal rate of 20% or more and less than 40%)

Q: And the “herbicidal effect rating, F: southern crabgrass” value [10]?
A: 3 (Herbicidal rate of 40% or more and less than 70%)

Q: What about the “herbicidal effect grade, P: chickweed” value [11] of the same compound?
A: 5 (Herbicidal rate of 90% or more (almost completely withered))

Q: What about the “herbicidal effect grade, Q: false cleavers” value [12] of the same compound?
A: 5 (Herbicidal rate of 90% or more (almost completely withered))

Q: What about the “herbicidal effect grade, N: redroot pigweed” value [13] of the same compound?
A: 3 (Herbicidal rate of 40% or more and less than 70%)

Q: And the “herbicidal effect rating, P: chickweed” value [14]?
A: 4 (Herbicidal rate of 70% or more and less than 90%)

Q: What about the “herbicidal effect grade, R: persian speedwell” value [15] of the same compound?
A: 5 (Herbicidal rate of 90% or more (almost completely withered))

Q: And the “herbicidal effect grade, M: velvetleaf” value [16]?
A: 4 (Herbicidal rate of 70% or more and less than 90%)

Q: What about the “herbicidal effect rating, G: green foxtail” value [17] of the same compound?
A: 4 (Herbicidal rate of 70% or more and less than 90%)

Q: And the “herbicidal effect on E (rice flat sedge), rating 0-5” value [18]?
A: 3 (Herbicidal rate of 40% or more and less than 70%)

Q: What about the “herbicidal effect rating, J: blackgrass” value [19] of the same compound?
A: 0 (Herbicidal rate of 5% or less (almost no effect))

Q: And the “herbicidal effect grade, K: Italian ryegrass” value [20]?
A: 3 (Herbicidal rate of 40% or more and less than 70%)

Q: And the “herbicidal effect grade, H: barnyard grass” value [21]?
A: 3 (Herbicidal rate of 40% or more and less than 70%)

Q: What about the “herbicidal effect grade, J: blackgrass” value [22] of the same compound?
A: 3 (Herbicidal rate of 40% or more and less than 70%)

Q: What about the “herbicidal effect grade, G: green foxtail” value [23] of the same compound?
A: 5 (Herbicidal rate of 90% or more (almost completely withered))

Q: And the “herbicidal effect rating, M: velvetleaf” value [24]?
A: 0 (Herbicidal rate of 5% or less (almost no effect))

Q: And the “herbicidal effect on H (barnyard grass), rating 0-5” value [25]?
A: 1 (Herbicidal rate of 5% or more and less than 20%)

Q: What about the “herbicidal effect rating, K: Italian ryegrass” value [26] of the same compound?
A: 0 (Herbicidal rate of 5% or less (almost no effect))

Q: What about the “herbicidal effect rating, I: wild oat” value [27] of the same compound?
A: 0 (Herbicidal rate of 5% or less (almost no effect))

Q: And the “herbicidal effect on D (Chinese sprangletop), rating 0-5” value [28]?
A: 3 (Herbicidal rate of 40% or more and less than 70%)

Q: What about the “herbicidal effect rating, O: lambsquarters” value [29] of the same compound?
A: 3 (Herbicidal rate of 40% or more and less than 70%)
